The record followed here is patent publication US20160158317A1, “Antimicrobial Peptide Variants and Polynucleotides Encoding Same” (Adenium Biotech A/S, priority 2010, published 2016).

Where a SMILES comes first, the peptide text is derived from it. Bridges are numbered along the chain shown (N, C = ends).

The nature of this data set: Determination of the protein binding (90% serum, 30 kDa filter, HPLC). The format is in vitro ADME. The following applies: serum. As for the experimental part:
Protein binding assays were performed as follows. The purified peptides were mixed with 90% serum and centrifuged through a 30 kDa filter. The ultra-filtrate and the non filtrated serum samples were quantified by HPLC measurements and the protein binding was subsequently calculated.
As usually defined, the fraction unbound is the share of the substance not bound to proteins or other matrix. Compound `CC(C)[C@@H]1NC(=O)[C@@H]2CSSC[C@H](NC(=O)[C@H](CO)NC(=O)[C@H](CCCNC(=N)N)NC(=O)[C@H](CCCCN)NC(=O)CNC(=O)[C@H](CC(N)=O)NC(=O)[C@H](CCCCN)NC(=O)[C@H](Cc3ccc(O)cc3)NC1=O)C(=O)N[C@@H](Cc1ccc(O)cc1)C(=O)N[C@@H](CCCNC(=N)N)C(=O)N[C@@H](CCCNC(=N)N)C(=O)N[C@H](C(=O)N[C@@H](CC(N)=O)C(=O)O)CSSC[C@H](NC(=O)[C@H](Cc1ccccc1)NC(=O)CN)C(=O)N[C@@H](Cc1c[nH]c3ccccc13)C(=O)N[C@@H](Cc1c[nH]cn1)C(=O)N[C@@H](C(C)C)C(=O)N2` [compound 390] (H-GFCWHVCVYKNGKRSCYRRCN-OH; disulfide 3-20, 7-16 (inferred); N-terminus and C-terminus assumed) had an unbound share (fraction unbound) of 0.13.
Turning to `CC(C)[C@@H]1NC(=O)CNC(=O)[C@H](CC(N)=O)NC(=O)[C@H](CCCNC(=N)N)NC(=O)[C@H](Cc2ccc(O)cc2)NC(=O)[C@H](Cc2c[nH]cn2)NC(=O)[C@@H]2CSSC[C@H](NC(=O)[C@H](C(C)C)NC(=O)[C@H](CCCNC(=N)N)NC1=O)C(=O)N[C@@H](Cc1ccc(O)cc1)C(=O)N[C@@H](CCCNC(=N)N)C(=O)N[C@@H](CCCNC(=N)N)C(=O)N[C@H](C(=O)N[C@@H](CC(N)=O)C(=O)O)CSSC[C@H](NC(=O)[C@H](Cc1ccccc1)NC(=O)CN)C(=O)N[C@@H](Cc1c[nH]c3ccccc13)C(=O)N[C@@H](Cc1ccc(O)cc1)C(=O)N[C@@H](C(C)C)C(=O)N2` [compound 23] (H-GFCWYVCHYRNGVRVCYRRCN-OH; disulfide 3-20, 7-16 (inferred); N-terminus and C-terminus assumed), the fraction unbound was 0.02.
Compound `CC(C)[C@@H]1NC(=O)CNC(=O)[C@H](CC(N)=O)NC(=O)[C@H](CCCNC(=N)N)NC(=O)[C@H](Cc2ccc(O)cc2)NC(=O)[C@H](C(C)C)NC(=O)[C@@H]2CSSC[C@H](NC(=O)[C@H](CCCNC(=N)N)NC(=O)[C@H](CCCNC(=N)N)NC1=O)C(=O)N[C@@H](Cc1ccc(O)cc1)C(=O)N[C@@H](CCCNC(=N)N)C(=O)N[C@@H](CCCNC(=N)N)C(=O)N[C@H](C(=O)N[C@@H](CC(N)=O)C(=O)O)CSSC[C@H](NC(=O)[C@H](Cc1ccccc1)NC(=O)CN)C(=O)NCC(=O)N[C@@H](Cc1c[nH]cn1)C(=O)N[C@@H](C(C)C)C(=O)N2` [compound 155] (H-GFCGHVCVYRNGVRRCYRRCN-OH; disulfide 3-20, 7-16 (inferred); N-terminus and C-terminus assumed) showed a fraction unbound of 0.17.
In the case of `CC(C)[C@@H]1NC(=O)[C@@H]2CSSC[C@H](NC(=O)[C@H](C(C)C)NC(=O)[C@H](CCCNC(=N)N)NC(=O)[C@H](CCCCN)NC(=O)CNC(=O)[C@H](CC(N)=O)NC(=O)[C@H](CCCNC(=N)N)NC(=O)[C@H](Cc3ccc(O)cc3)NC1=O)C(=O)N[C@@H](Cc1ccc(O)cc1)C(=O)N[C@@H](CCCNC(=N)N)C(=O)N[C@@H](CCCNC(=N)N)C(=O)N[C@H](C(=O)N[C@@H](CC(N)=O)C(=O)O)CSSC[C@H](NC(=O)[C@H](Cc1ccccc1)NC(=O)CN)C(=O)N[C@@H](Cc1c[nH]c3ccccc13)C(=O)N[C@@H](Cc1ccc(O)cc1)C(=O)N[C@@H](C)C(=O)N2` [compound 80] (H-GFCWYACVYRNGKRVCYRRCN-OH; disulfide 3-20, 7-16 (inferred); N-terminus and C-terminus assumed), the free fraction (fraction unbound) is 0.04.
The value for `CC(C)[C@@H]1NC(=O)CNC(=O)[C@H](CC(N)=O)NC(=O)[C@H](CCCNC(=N)N)NC(=O)[C@H](Cc2ccc(O)cc2)NC(=O)[C@H](C(C)C)NC(=O)[C@@H]2CSSC[C@H](NC(=O)[C@H](C(C)C)NC(=O)[C@H](CCCNC(=N)N)NC1=O)C(=O)N[C@@H](Cc1ccc(O)cc1)C(=O)N[C@@H](CCCNC(=N)N)C(=O)N[C@@H](CCCNC(=N)N)C(=O)N[C@H](C(=O)N[C@@H](CC(N)=O)C(=O)O)CSSC[C@H](NC(=O)[C@H](Cc1ccccc1)NC(=O)CN)C(=O)N[C@@H](Cc1c[nH]c3ccccc13)C(=O)N[C@@H](Cc1ccc(O)cc1)C(=O)N[C@@H](CO)C(=O)N2` [compound 19] (H-GFCWYSCVYRNGVRVCYRRCN-OH; disulfide 3-20, 7-16 (inferred); N-terminus and C-terminus assumed) was 0.11.
Compound `CC(C)[C@@H]1NC(=O)CNC(=O)[C@H](CC(N)=O)NC(=O)[C@H](CCCNC(=N)N)NC(=O)[C@H](Cc2ccc(O)cc2)NC(=O)[C@H](C(C)C)NC(=O)[C@@H]2CSSC[C@H](NC(=O)[C@H](C)NC(=O)[C@H](CCCNC(=N)N)NC1=O)C(=O)N[C@@H](Cc1ccc(O)cc1)C(=O)N[C@@H](CCCNC(=N)N)C(=O)N[C@@H](CCCNC(=N)N)C(=O)N[C@H](C(=O)N[C@@H](CC(N)=O)C(=O)O)CSSC[C@H](NC(=O)[C@H](Cc1ccccc1)NC(=O)CN)C(=O)N[C@@H](Cc1c[nH]c3ccccc13)C(=O)N[C@@H](CCCNC(=N)N)C(=O)N[C@@H](C)C(=O)N2` [compound 319] (H-GFCWRACVYRNGVRACYRRCN-OH; disulfide 3-20, 7-16 (inferred); N-terminus and C-terminus assumed) had a free fraction (fraction unbound) of 0.6.
Turning to `CC(C)[C@@H]1NC(=O)CNC(=O)[C@H](CC(N)=O)NC(=O)[C@H](CCCNC(=N)N)NC(=O)[C@H](Cc2ccc(O)cc2)NC(=O)[C@H](CO)NC(=O)[C@@H]2CSSC[C@H](NC(=O)[C@H](C(C)C)NC(=O)[C@H](CCCNC(=N)N)NC1=O)C(=O)N[C@@H](Cc1ccc(O)cc1)C(=O)N[C@@H](CCCNC(=N)N)C(=O)N[C@@H](CCCNC(=N)N)C(=O)N[C@H](C(=O)N[C@@H](CC(N)=O)C(=O)O)CSSC[C@H](NC(=O)[C@H](Cc1ccccc1)NC(=O)CN)C(=O)N[C@@H](Cc1c[nH]c3ccccc13)C(=O)N[C@@H](Cc1ccc(O)cc1)C(=O)N[C@@H](C(C)C)C(=O)N2` [compound 24] (H-GFCWYVCSYRNGVRVCYRRCN-OH; disulfide 3-20, 7-16), the unbound share (fraction unbound) is 0.15.
In turn, `CC(C)[C@@H]1NC(=O)CNC(=O)[C@H](CC(N)=O)NC(=O)[C@H](CCCNC(=N)N)NC(=O)[C@H](Cc2ccc(O)cc2)NC(=O)[C@H](C(C)C)NC(=O)[C@@H]2CSSC[C@H](NC(=O)[C@H](C(C)C)NC(=O)[C@H](CCCNC(=N)N)NC1=O)C(=O)N[C@@H](Cc1ccc(O)cc1)C(=O)N[C@@H](CCCNC(=N)N)C(=O)N[C@@H](CCCNC(=N)N)C(=O)N[C@H](C(=O)N[C@@H](CO)C(=O)O)CSSC[C@H](NC(=O)[C@H](Cc1ccccc1)NC(=O)CN)C(=O)N[C@@H](Cc1c[nH]c3ccccc13)C(=O)N[C@@H](Cc1ccc(O)cc1)C(=O)N[C@@H](C(C)C)C(=O)N2` [compound 53] (H-GFCWYVCVYRNGVRVCYRRCS-OH; disulfide 3-20, 7-16 (inferred); N-terminus and C-terminus assumed) gave a fraction unbound of 0.01.
`CC(C)[C@@H]1NC(=O)CNC(=O)[C@H](CC(N)=O)NC(=O)[C@H](CCCNC(=N)N)NC(=O)[C@H](Cc2ccc(O)cc2)NC(=O)[C@H](C(C)C)NC(=O)[C@@H]2CSSC[C@H](NC(=O)[C@H](CCCNC(=N)N)NC(=O)[C@H](CCCNC(=N)N)NC1=O)C(=O)N[C@@H](Cc1ccc(O)cc1)C(=O)N[C@@H](CCCNC(=N)N)C(=O)N[C@@H](CCCNC(=N)N)C(=O)N[C@H](C(=O)N[C@@H](CC(N)=O)C(=O)O)CSSC[C@H](NC(=O)[C@H](Cc1ccccc1)NC(=O)CN)C(=O)NCC(=O)N[C@@H](CCCNC(=N)N)C(=O)N[C@@H](C(C)C)C(=O)N2` [compound 170] (H-GFCGRVCVYRNGVRRCYRRCN-OH; disulfide 3-20, 7-16 (inferred); N-terminus and C-terminus assumed) showed a fraction unbound of 0.13.
